Test results reported in US10183950B2, “Thienopyrimidine inhibitors of atypical protein kinase C” (Cancer Research Technology Limited, priority 2011, dated 2019).
pIC50: −log10 of the molar value.

target: T1, kinase-domain human PKCι (Homo sapiens, UniProt P41743); test: PKCι IC50 IMAP fluorescence polarisation assay, kinase-domain enzyme; format: biochemical; details: kinase domain PKCi at 2 μM ATP; read-out: IC50 in IMAP assay against kinase domain PKCi
T1 construct: Recombinant, kinase-domain human PKCι is expressed and purified in-house; made in house
T1 sequence (P41743 254-522 limits assumed): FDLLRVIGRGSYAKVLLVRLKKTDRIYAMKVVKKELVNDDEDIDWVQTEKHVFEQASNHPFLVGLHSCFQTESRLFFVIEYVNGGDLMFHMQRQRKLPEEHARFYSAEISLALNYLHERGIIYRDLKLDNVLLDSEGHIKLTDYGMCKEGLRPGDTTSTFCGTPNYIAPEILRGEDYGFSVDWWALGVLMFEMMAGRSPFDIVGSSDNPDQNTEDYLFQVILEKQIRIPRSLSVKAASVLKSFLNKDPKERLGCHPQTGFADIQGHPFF

Compound	pIC50
Clc1cccc2sc3c(N4CCNCC4)nc(-c4ccncc4)nc3c12 [compound 387, 9-Chloro-4-piperazin-1-yl-2-pyridin-4-yl-benzo[4,5]thieno[3,2-d]pyrimidine]	6.00 to 7.00
Cc1csc2c(OC[C@H](N)Cc3ccccc3)nc(-c3ccncc3)nc12 [compound 482, (R)-1-(7-Methyl-2-pyridin-4-yl-thieno[3,2-d]pyrimidin-4-yloxymethyl)-2-phenyl-ethylamine]	4.40 to 5.00
NCCNc1nc(-c2ccncc2)nc2c1sc1cccc(Cl)c12 [compound 386, N*1*-(9-Chloro-2-pyridin-4-yl-benzo[4,5]thieno[3,2-d]pyrimidin-4-yl)-ethane-1,2-diamine]	6.00 to 7.00
Clc1cccc2sc3c(OC[C@@H]4CCCN4)nc(-c4ccncc4)nc3c12 [compound 479, 9-Chloro-2-pyridin-4-yl-4-((S)-1-pyrrolidin-2-ylmethoxy)-benzo[4,5]thieno[3,2-d]pyrimidine]	5.00 to 6.00
NCCNc1nc(-c2ccncc2)nc2c1sc1ncccc12 [compound 375, N*1*-(2-Pyridin-4-yl-pyrido[3′,2′:4,5]thieno[3,2-d]pyrimidin-4-yl)-ethane-1,2-diamine]	5.00 to 6.00
CC(C)(C)c1ccc(-c2cc3nc(-c4ccncc4)nc(N4CCCNCC4)c3s2)cc1 [compound 356, 6-(4-tert-butyl-phenyl)-4-[1,4]diazepan-1-yl-2-pyridin-4-yl-thieno[3,2-d]pyrimidine]	4.40 to 5.00
CC(C)(C)c1ccc(-c2cc3nc(-c4ccncc4)nc(NCCN)c3s2)cc1 [compound 360, N*1*-[6-(4-tert-Butyl-phenyl)-2-pyridin-4-yl-thieno[3,2-d]pyrimidin-4-yl]-ethane-1,2-diamine]	4.40 to 5.00
Cc1cc(C)c2c(n1)sc1c(NC[C@@H](C)N)nc(-c3ccncc3)nc12 [compound 383, (R)-N*1*-(7,9-Dimethyl-2-pyridin-4-yl-pyrido[3′,2′:4,5]thieno[3,2-d]pyrimidin-4-yl)-propane-1,2-diamine]	5.00 to 6.00
N[C@H](CNc1nc(-c2ccncc2)nc2c1sc1cccc(Cl)c12)Cc1ccccc1 [compound 372, (S)-N*1*-(9-Chloro-2-pyridin-4-yl-benzo[4,5]thieno[3,2-d]pyrimidin-4-yl)-3-phenyl-propane-1,2-diamine]	6.00 to 7.00
Cc1csc2c(NC[C@H](C)N)nc(-c3ccncc3)nc12 [compound 361, (S)-N*1*-(7-Methyl-2-pyridin-4-yl-thieno[3,2-d]pyrimidin-4-yl)-propane-1,2-diamine]	6.00 to 7.00
Cc1csc2c(O[C@H]3CCNC3)nc(-c3ccncc3)nc12 [compound 483, 7-Methyl-2-pyridin-4-yl-4-((S)-pyrrolidin-3-yloxy)-thieno[3,2-d]pyrimidine]	4.40 to 5.00

same assay, conditions: kinase domain PKCi at 2 μM ATP; read-out: IC50 in IMAP assay against kinase domain PKCi (Activity)

Compound	pIC50
CC[C@@H](N)CNc1nc(-c2ccncc2)nc2sc3c(c12)CCCC3 [compound 17, (R)-N*1*-(2-Pyridin-4-yl-5,6,7,8-tetrahydro-benzo[4,5]thieno[2,3-d]pyrimidin-4-yl)-butane-1,2-diamine]	5.00 to 6.00
CC(C)[C@H](N)COc1nc(-c2ccncc2)nc2sc3c(c12)CCCC3 [compound 151, (S)-2-Methyl-1-(2-pyridin-4-yl-5,6,7,8-tetrahydro-benzo[4,5]thieno[2,3-d]pyrimidin-4-yloxymethyl)-propylamine]	5.00 to 6.00
C[C@@H](N)CNc1nc(-c2ccncc2)nc2sc3c(c12)CCCCC3 [compound 89, (R)-N*1*-(2-Pyridin-4-yl-6,7,8,9-tetrahydro-5H-10-thia-1,3-diaza-benzo[a]azulen-4-yl)-propane-1,2-diamine]	6.00 to 7.00
NCCNc1nc(-c2cn[nH]c2)nc2sc3c(c12)CCCC3 [compound 181, N*1*-[2-(1H-Pyrazol-4-yl)-5,6,7,8-tetrahydro-benzo[4,5]thieno[2,3-d]pyrimidin-4-yl]-ethane-1,2-diamine]	6.00 to 7.00
Cc1ccc(C[C@H](N)COc2nc(-c3ccncc3)nc3sc4c(c23)CCCC4)cc1 [compound 166, (S)-1-(4-Methyl-benzyl)-2-(2-pyridin-4-yl-5,6,7,8-tetrahydro-benzo[4,5]thieno[2,3-d]pyrimidin-4-yloxy)-ethylamine]	5.00 to 6.00
c1cc(-c2nc(OC3CNC3)c3c4c(sc3n2)CCCC4)ccn1 [compound 152, 4-(Azetidin-3-yloxy)-2-pyridin-4-yl-5,6,7,8-tetrahydro-benzo[4,5]thieno[2,3-d]pyrimidine]	5.00 to 6.00
CN(C)CCNc1nc(-c2ccncc2)nc2sc3c(c12)CCCC3 [compound 1, N,N-dimethyl-N′-(2-pyridin-4-yl-5,6,7,8-tetrahydro-benzo[4,5]thieno[2,3-d]pyrimidin-4-yl)-ethane-1,2-diamine]	5.00 to 6.00
C[C@H](N)CNc1nc(-c2cn[nH]c2)nc2sc3c(c12)CCCC3 [compound 187, (S)-N*1*-[2-(1H-Pyrazol-4-yl)-5,6,7,8-tetrahydro-benzo[4,5]thieno[2,3-d]pyrimidin-4-yl]-propane-1,2-diamine]	6.00 to 7.00
N[C@H](COc1nc(-c2ccncc2)nc2sc3c(c12)CCCC3)Cc1ccccc1F [compound 164, (S)-1-(2-Fluoro-benzyl)-2-(2-pyridin-4-yl-5,6,7,8-tetrahydro-benzo[4,5]thieno[2,3-d]pyrimidin-4-yloxy)-ethylamine]	5.00 to 6.00
Brc1ccc(-c2csc3nc(-c4ccncc4)nc(N4CCCNCC4)c23)cc1 [compound 93, 5-(4-Bromo-phenyl)-4-[1,4]diazepan-1-yl-2-pyridin-4-yl-thieno[2,3-d]pyrimidine]	5.00 to 6.00
N[C@@H](CNc1nc(-c2ccncc2)nc2sc3c(c12)CCCC3)Cc1c[nH]c2ccccc12 [compound 7, (R)-3-(1H-Indol-3-yl)-N*1*- (2-pyridin-4-yl-5,6,7,8-tetrahydro-benzo[4,5]thieno[2,3-d]pyrimidin-4-yl)-propane-1,2-diamine]	5.00 to 6.00
N[C@H](COc1nc(-c2ccncc2)nc2sc3c(c12)CCCC3)c1ccccc1 [compound 155, (S)-1-Phenyl-2-(2-pyridin-4-yl-5,6,7,8-tetrahydro-benzo[4,5]thieno[2,3-d]pyrimidin-4-yloxy)-ethylamine]	5.00 to 6.00
c1n[nH]cc1-c1nc(N2CCNCC2)c2c3c(sc2n1)CCCC3 [compound 185, 4-Piperazin-1-yl-2-(1H-pyrazol-4-yl)-5,6,7,8-tetrahydro-benzo[4,5]thieno[2,3-d]pyrimidine]	6.00 to 7.00
C[C@@H](N)CNc1nc(-c2ccncc2)nc2sc3c(c12)CCCC3 [compound 2, (R)-N*1*-(2-Pyridin-4-yl-5,6,7,8-tetrahydro-benzo[4,5]thieno[2,3-d]pyrimidin-4-yl)-propane-1,2-diamine]	6.00 to 7.00
C[C@@H](N)COc1nc(-c2ccncc2)nc2sc3c(c12)CCCC3 [compound 145, (R)-1-Methyl-2-(2-pyridin-4-yl-5,6,7,8-tetrahydro-benzo[4,5]thieno[2,3-d]pyrimidin-4-yloxy)-ethylamine]	5.00 to 6.00
N[C@H](COc1nc(-c2ccncc2)nc2sc3c(c12)CCCC3)Cc1c[nH]cn1 [compound 175, (S)-1-(1H-Imidazol-4-ylmethyl)-2-(2-pyridin-4-yl-5,6,7,8-tetrahydro-benzo[4,5]thieno[2,3-d]pyrimidin-4-yloxy)-ethylamine]	4.40 to 5.00
Cc1sc2nc(-c3ccncc3)nc(NCCN)c2c1-c1ccccc1 [compound 91, N*1*-(6-Methyl-5-phenyl-2-pyridin-4-yl-thieno[2,3-d]pyrimidin-4-yl)-ethane-1,2-diamine]	5.00 to 6.00
C[C@H](N)COc1nc(-c2ccncc2)nc2sc3c(c12)CCCC3 [compound 144, (S)-1-Methyl-2-(2-pyridin-4-yl-5,6,7,8-tetrahydro-benzo[4,5]thieno[2,3-d]pyrimidin-4-yloxy)-ethylamine]	6.00 to 7.00
C[C@@H]1CN[C@@H](C)CN1c1nc(-c2ccncc2)nc2sc3c(c12)CCCC3 [compound 10, 4-((2R,5S)-2,5-Dimethyl-piperazin-1-yl)-2-pyridin-4-yl-5,6,7,8-tetrahydro-benzo[4,5]thieno[2,3-d]pyrimidine]	5.00 to 6.00
c1n[nH]cc1-c1nc(N2CCCNCC2)c2c3c(sc2n1)CCCC3 [compound 186, 4-[1,4]Diazepan-1-yl-2-(1H-pyrazol-4-yl)-5,6,7,8-tetrahydro-benzo[4,5]thieno[2,3-d]pyrimidine]	6.00 to 7.00
CCc1cc2c(NC[C@@H](C)N)nc(-c3ccncc3)nc2s1 [compound 35, (R)-N*1*-(6-Ethyl-2-pyridin-4-yl-thieno[2,3-d]pyrimidin-4-yl)-propane-1,2-diamine]	5.00 to 6.00
Cc1sc2nc(-c3ccncc3)nc(N3CCCNCC3)c2c1-c1ccccc1 [compound 92, 4-[1,4]Diazepan-1-yl-6-methyl-5-phenyl-2-pyridin-4-yl-thieno[2,3-d]pyrimidine]	5.00 to 6.00
NCCNc1nc(-c2ccncc2)nc2sc3c(c12)CCCCC3 [compound 84, N*1*-(2-pyridin-4-yl-6,7,8,9-tetrahydro-5H-10-thia-1,3-diaza-benzo[a]azulen-4-yl)-ethane-1,2-diamine]	6.00 to 7.00
Cc1c(C(N)=O)sc2nc(-c3ccncc3)nc(NCCN)c12 [compound 39, 4-(2-Amino-ethylamino)-5-methyl-2-pyridin-4-yl-thieno[2,3-d]pyrimidine-6-carboxylic acid amide]	6.00 to 7.00
